The values that follow come from patent US20180251431A1 (VERTEX PHARMACEUTICALS INCORPORATED, priority 2016, published 2018).

This assay has as its system HEK293 cells. The assay can be described thus: HEK293 VLCFA-LPC IC50 determination (13C-labeled C26:0 LPC by UHPLC/MS). It counts as cell-based, human. The following applies: Homo sapiens, HEK293, HEK293 cells; average of one or more replicates; read-out: Average HEK293 IC50. The method, boiled down:
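Suspension HEK293 cells (final 0.5 million/mL after mixing with equal volume) incubated 48 hours with compound plus 13C-acetate (1.0 mg/mL in added media), shaking at 37° C. Lipids extracted with hexane/isopropanol or methanol, C13:0 LPC standard. UHPLC/MS of 13C-labeled C26:0 LPC (638.500/104.100 m/z); IC50 by four-parameter fit.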

Turning to `O=C(Cc1ccc(F)cc1)Nc1ccn(-c2cncnc2)n1` [Compound 97, 2-(4-fluorophenyl)-N-(1-pyrimidin-5-ylpyrazol-3-yl)acetamide], the IC50 was over 10000 nM.
Then `O=C(Nc1ccn(-c2cncnc2)n1)C1(c2ccccc2)CC1` [Compound 98, 1-phenyl-N-(1-pyrimidin-5-ylpyrazol-3-yl)cyclopropanecarboxamide], with 110 nM; and `O=C(Cc1ccccc1)Nc1ccn(-c2ccncc2)n1` [Compound 99, 2-phenyl-N-[1-(4-pyridyl)pyrazol-3-yl]acetamide], with 760 nM; and `O=C(Nc1ccn(-c2ccncc2)n1)C1(c2ccccc2)CC1` [Compound 100, 1-phenyl-N-[1-(4-pyridyl)pyrazol-3-yl]cyclopropanecarboxamide], with 33 nM.
As to `O=C(Nc1ccn(-c2ccncc2)n1)C1(c2ccccc2F)CC1` [Compound 101, 1-(2-fluorophenyl)-N-[1-(4-pyridyl)pyrazol-3-yl]cyclopropanecarboxamide], the IC50 was determined as 75 nM.
Then `O=C(Cc1ccc(F)cc1)Nc1ccn(-c2ccncc2)n1` [Compound 102, 2-(4-fluorophenyl)-N-[1-(4-pyridyl)pyrazol-3-y]+acetamide], with 3600 nM; and `O=C(Cc1ccccc1)Nc1ccn(-c2ccc(Cl)nc2)n1` [Compound 103, N-[1-(6-chloro-3-pyridyl)pyrazol-3-yl]-2-phenyl-acetamide], with 580 nM.
Then `O=C(Cc1ccccc1F)Nc1ccn(-c2ccc(Cl)nc2)n1` [Compound 104, N-[1-(6-chloro-3-pyridyl)pyrazol-3-yl]-2-(2-fluorophenyl)acetamide], with 320 nM.
For `O=C(Cc1ccc(F)cc1)Nc1ccn(-c2ccc(Cl)nc2)n1` [Compound 105, N-[1-(6-chloro-3-pyridyl)pyrazol-3-yl]-2-(4-fluorophenyl)acetamide] the value was over 5000 nM.
In the case of `O=C(Nc1ccn(-c2ccc(Cl)nc2)n1)C1(c2ccccc2)CC1` [Compound 106, N-[1-(6-chloro-3-pyridyl)pyrazol-3-yl]-1-phenyl-cyclopropanecarboxamide], the IC50 is 250 nM.
For `O=C(Nc1ccn(-c2ccc(Cl)nc2)n1)C1(c2ccccc2F)CC1` [Compound 107, N-[1-(6-chloro-3-pyridyl)pyrazol-3-yl]-1-(2-fluorophenyl)cyclopropanecarboxamide] the value was 84 nM; for `Cc1cc(-n2ccc(NC(=O)C3(c4ccc(F)cc4)CC3)n2)ccn1` [Compound 108, 1-(4-fluorophenyl)-N-[1-(2-methyl-4-pyridyl)pyrazol-3-yl]cyclopropanecarboxamide], 770 nM; for `Cc1cc(-n2ccc(NC(=O)Cc3ccccc3)n2)ccn1` [Compound 109, N-[1-(2-methyl-4-pyridyl)pyrazol-3-yl]-2-phenyl-acetamide], over 10000 nM.
For `Cc1cc(-n2ccc(NC(=O)Cc3ccccc3F)n2)ccn1` [Compound 110, 2-(2-fluorophenyl)-N-[1-(2-methyl-4-pyridyl)pyrazol-3-yl]acetamide] the value was over 10000 nM.
Then `Cc1cc(-n2ccc(NC(=O)Cc3ccc(F)cc3)n2)ccn1` [Compound 111, 2-(4-fluorophenyl)-N-[1-(2-methyl-4-pyridyl)pyrazol-3-yl]acetamide], with over 10000 nM; and `Cc1cc(-n2ccc(NC(=O)C3(c4ccccc4)CC3)n2)ccn1` [Compound 112, N-[1-(2-methyl-4-pyridyl)pyrazol-3-yl]-1-phenyl-cyclopropanecarboxamide], with 910 nM.
For the compound `Cc1cc(-n2ccc(NC(=O)C3(c4ccccc4F)CC3)n2)ccn1` [Compound 113, 1-(2-fluorophenyl)-N-[1-(2-methyl-4-pyridyl)pyrazol-3-yl]cyclopropanecarboxamide], the concentration for half-maximal inhibition (IC50) amounted to 1600 nM.
Then `O=C(Cc1ccccc1)Nc1ccn(-c2cc(F)ncc2F)n1` [Compound 114, N-[1-(2,5-difluoro-4-pyridyl)pyrazol-3-yl]-2-phenyl-acetamide], with 1200 nM; and `O=C(Nc1ccn(-c2cc(F)ncc2F)n1)C1(c2ccccc2)CC1` [Compound 115, N-[1-(2,5-difluoro-4-pyridyl)pyrazol-3-yl]-1-phenyl-cyclopropanecarboxamide], with 120 nM; and `O=C(Nc1ccn(-c2cc(F)ncc2F)n1)C1(c2ccccc2F)CC1` [Compound 116, N-[1-(2,5-difluoro-4-pyridyl)pyrazol-3-yl]-1-(2-fluorophenyl)cyclopropanecarboxamide], with 76 nM.
Then `Cc1ccc(-n2ccc(NC(=O)Cc3ccccc3)n2)cn1` [Compound 117, N-[1-(6-methyl-3-pyridyl)pyrazol-3-yl]-2-phenyl-acetamide], with over 5000 nM; and `Cc1ccc(-n2ccc(NC(=O)C3(c4ccccc4)CC3)n2)cn1` [Compound 118, N-(1-(6-methylpyridin-3-yl)-1H-pyrazol-3-yl)-1-phenylcyclopropane-1-carboxamide], with 1300 nM; and `Cc1ccc(-n2ccc(NC(=O)Cc3ccccc3F)n2)cn1` [Compound 119, 2-(2-fluorophenyl)-N-[1-(6-methyl-3-pyridyl)pyrazol-3-yl]acetamide], with 3500 nM.
Then `Cc1ccc(-n2ccc(NC(=O)C3(c4ccccc4F)CC3)n2)cn1` [Compound 120, 1-(2-fluorophenyl)-N-[1-(6-methyl-3-pyridyl)pyrazol-3-yl]cyclopropanecarboxamide], with 620 nM; and `O=C(Cc1ccccc1)Nc1ccn(-c2cccc(Cl)c2)n1` [Compound 121, N-[1-(3-chlorophenyl)pyrazol-3-yl]-2-phenyl-acetamide], with 650 nM; and `O=C(Cc1ccccc1F)Nc1ccn(-c2ccnc(C(F)(F)F)c2)n1` [Compound 122, 2-(2-fluorophenyl)-N-[1-[2-(trifluoromethyl)-4-pyridyl]pyrazol-3-yl]acetamide], with 1600 nM.
Turning to `O=C(Cc1ccccc1)Nc1ccn(-c2ccnc(C(F)(F)F)c2)n1` [Compound 123, 2-phenyl-N-[1-[2-(trifluoromethyl)-4-pyridyl]pyrazol-3-yl]acetamide], the half-maximal inhibitory concentration (IC50) is 1500 nM.
For `O=C(Nc1ccn(-c2cccc(F)c2)n1)C1(c2ccccc2F)CC1` [Compound 124, 1-(2-fluorophenyl)-N-[1-(3-fluorophenyl)pyrazol-3-yl]cyclopropanecarboxamide] the value was 41 nM; for `O=C(Nc1ccn(-c2cccc(F)c2)n1)C1(c2ccccc2)CC1` [Compound 125, N-[1-(3-fluorophenyl)pyrazol-3-yl]-1-phenyl-cyclopropanecarboxamide], 71 nM.
For `O=C(Cc1ccccc1F)Nc1ccn(-c2cccc(F)c2)n1` [Compound 126, 2-(2-fluorophenyl)-N-[1-(3-fluorophenyl)pyrazol-3-yl]acetamide] the value was 500 nM; for `O=C(Cc1ccccc1)Nc1ccn(-c2cccc(F)c2)n1` [Compound 127, N-[1-(3-fluorophenyl)pyrazol-3-yl]-2-phenyl-acetamide], 810 nM.
For `O=C(Nc1ccn(-c2cccc(Cl)c2)n1)C1(c2ccccc2F)CC1` [Compound 128, N-[1-(3-chlorophenyl)pyrazol-3-yl]-1-(2-fluorophenyl)cyclopropanecarboxamide] the value was 230 nM; for `O=C(Nc1ccn(-c2cccc(Cl)c2)n1)C1(c2ccccc2)CC1` [Compound 129, N-[1-(3-chlorophenyl)pyrazol-3-yl]-1-phenyl-cyclopropanecarboxamide], 700 nM; for `O=C(Cc1ccccc1F)Nc1ccn(-c2cccc(Cl)c2)n1` [Compound 130, N-[1-(3-chlorophenyl)pyrazol-3-yl]-2-(2-fluorophenyl)acetamide], 1500 nM.
On to `O=C(Nc1ccn(-c2ccc(Cl)cc2)n1)C1(c2ccccc2F)CC1` [Compound 131, N-[1-(4-chlorophenyl)pyrazol-3-yl]-1-(2-fluorophenyl)cyclopropanecarboxamide], for which the IC50 was determined as 480 nM.
For `O=C(Nc1ccn(-c2ccc(Cl)cc2)n1)C1(c2ccccc2)CC1` [Compound 132, N-[1-(4-chlorophenyl)pyrazol-3-yl]-1-phenyl-cyclopropanecarboxamide] the value was over 5000 nM.
Then `O=C(Cc1ccccc1F)Nc1ccn(-c2ccc(Cl)cc2)n1` [Compound 133, N-[1-(4-chlorophenyl)pyrazol-3-yl]-2-(2-fluorophenyl)acetamide], with over 5000 nM; and `O=C(Cc1ccccc1)Nc1ccn(-c2ccc(Cl)cc2)n1` [Compound 134, N-[1-(4-chlorophenyl)pyrazol-3-yl]-2-phenyl-acetamide], with over 5000 nM; and `CC1(C)CC1(C(=O)Nc1ccn(-c2ccccc2)n1)c1ccccc1F` (centres unmarked) [Compound 135, 1-(2-fluorophenyl)-2,2-dimethyl-N-(1-phenylpyrazol-3-yl)cyclopropanecarboxamide], with 680 nM.
For `CC1(C)CC1(C(=O)Nc1ccn(-c2ccccc2)n1)c1ccccc1` (centres unmarked) [Compound 136, 2,2-dimethyl-1-phenyl-N-(1-phenylpyrazol-3-yl)cyclopropanecarboxamide] the value was 940 nM; for `O=C(Nc1ccn(-c2ccncc2F)n1)C1(c2ccccc2F)CC1` [Compound 137, 1-(2-fluorophenyl)-N-[1-(3-fluoro-4-pyridyl)pyrazol-3-yl]cyclopropanecarboxamide], 120 nM.
Consider `O=C(Nc1ccn(-c2ccncc2F)n1)C1(c2ccccc2)CC1` [Compound 138, N-(1-(3-fluoropyridin-4-yl)-1H-pyrazol-3-yl)-1-phenylcyclopropane-1-carboxamide], for which the half-inhibitory concentration (IC50) is 55 nM.
On to `O=C(Cc1ccccc1F)Nc1ccn(-c2ccncc2F)n1` [Compound 139, 2-(2-fluorophenyl)-N-[1-(3-fluoro-4-pyridyl)pyrazol-3-yl]acetamide], for which the IC50 worked out at 400 nM.
As to `O=C(Cc1ccccc1)Nc1ccn(-c2ccncc2F)n1` [Compound 140, N-[1-(3-fluoro-4-pyridyl)pyrazol-3-yl]-2-phenyl-acetamide], the IC50 worked out at 1100 nM.

One may read the IC50 as the concentration at which inhibition is half-maximal.
